Measured values published in patent US8710043B2, “TRPM8 antagonists and their use in treatments” (Amgen Inc., priority 2011, dated 2014).

How the values were obtained:
[1] = biological target: T1, human TRPM8 (Homo sapiens, UniProt Q7Z2W7); experiment: Luminescence readout assay for measuring intracellular calcium, icilin activation; assay type: cell-based; conditions: CHO cells expressing human TRPM8, aequorin luminescence, 1 μM icilin activation; read-out: hTRPM8 IC50
T1 construct: expressed in transfected cells; host or cells: Chinese hamster ovary (CHO) cells, T-REx tetracycline-inducible system, co-transfected with aequorin
In short: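 The read-out was luminescence reporting intracellular calcium, recorded by a CCD-based luminometer. Compounds were preincubated for 2.5 min before agonist challenge with 1 μM icilin. Human TRPM8 was expressed in a stable T-REx CHO line, induced with 0.5 μg/mL tetracycline the day before.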

[2] = tested on: icilin induced wet-dog shakes; experiment: Inhibition of icilin induced shaking (wet-dog shakes) in rats; assay type: in vivo; conditions: Rattus norvegicus, po; dose 1 mg/kg p.o., 2 h before icilin; male Sprague Dawley rats; shakes counted for 30 min post-icilin
Protocol: Inhibition of Icilin Induced Shaking in Rats
Example compounds at doses ranging from 0.01 to 3 mg/kg (p.o, suspended in 5% Tween80/Oralplus or suspended in 2% HPMC-1% Tween-80 pH2.2 with MSA, 5 mL/kg) were administered to male Sprague Dawley rats (200-300 g, Harlan, n=6-8/treatment) 2 h before icilin to assess the ability to block the spontaneous wet-dog shake phenomena induced by icilin (i.p., suspended in 100% PEG400 at 0.5 mg/kg, 1 mL/kg or p.o., suspended in 2% HPMC-1% Tween-80 at 3 mg/kg, 2.5 mL/kg). Spontaneous wet-dog shakes were counted manually by two blinded observers or using LABORAS automation (Metris) for 30 min post-icilin.

T1 sequence (Q7Z2W7 whole entry): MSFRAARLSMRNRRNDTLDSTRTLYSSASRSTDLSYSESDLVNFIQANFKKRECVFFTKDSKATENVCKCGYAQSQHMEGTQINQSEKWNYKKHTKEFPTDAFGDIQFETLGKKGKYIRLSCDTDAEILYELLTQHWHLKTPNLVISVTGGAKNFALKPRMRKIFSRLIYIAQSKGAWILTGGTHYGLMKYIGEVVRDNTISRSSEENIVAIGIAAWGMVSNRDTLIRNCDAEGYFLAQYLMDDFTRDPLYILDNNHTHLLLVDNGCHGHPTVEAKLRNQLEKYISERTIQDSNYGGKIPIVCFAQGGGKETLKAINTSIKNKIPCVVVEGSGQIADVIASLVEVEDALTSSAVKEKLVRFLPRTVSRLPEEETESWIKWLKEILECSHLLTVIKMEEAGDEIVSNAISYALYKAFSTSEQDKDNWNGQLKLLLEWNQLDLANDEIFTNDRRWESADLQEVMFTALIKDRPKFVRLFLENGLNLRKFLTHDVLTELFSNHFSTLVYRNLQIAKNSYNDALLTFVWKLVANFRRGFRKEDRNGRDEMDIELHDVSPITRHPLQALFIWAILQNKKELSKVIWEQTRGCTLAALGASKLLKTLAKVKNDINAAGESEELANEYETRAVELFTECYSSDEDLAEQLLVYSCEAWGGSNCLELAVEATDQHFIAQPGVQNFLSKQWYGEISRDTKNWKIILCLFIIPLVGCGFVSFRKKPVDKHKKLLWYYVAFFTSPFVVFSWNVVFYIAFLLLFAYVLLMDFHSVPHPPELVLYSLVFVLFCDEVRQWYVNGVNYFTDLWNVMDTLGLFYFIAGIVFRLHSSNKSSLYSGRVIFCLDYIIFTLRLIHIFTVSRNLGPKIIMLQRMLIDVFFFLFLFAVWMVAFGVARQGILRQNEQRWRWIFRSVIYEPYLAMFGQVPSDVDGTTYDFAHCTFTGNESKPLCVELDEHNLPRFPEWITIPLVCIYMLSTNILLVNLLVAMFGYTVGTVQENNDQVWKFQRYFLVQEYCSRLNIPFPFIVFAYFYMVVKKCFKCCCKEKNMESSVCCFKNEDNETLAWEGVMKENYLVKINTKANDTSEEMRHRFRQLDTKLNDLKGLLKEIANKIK

## O=C(N[C@@H](c1ccc(OC(F)(F)F)c(F)c1)c1ncccc1F)c1ccc(=O)n(CCO)c1 [Example 297, (S)-N-((3-fluoro-4-(trifluoromethoxy)phenyl)(3-fluoropyridin-2-yl)methyl)-1-(2-hydroxyethyl)-6-oxo-1,6-dihydropyridine-3-carboxamide]
[1]
  IC50: 16.8 nM
[2]
  inhibition in vivo at 1 mg/kg: 78%

## O=C(N[C@@H](c1ccc(OC(F)(F)F)c(F)c1)c1ccccn1)c1ccc(=O)[nH]c1 [Example 293, (S)-N-((3-fluoro-4-(trifluoromethoxy)phenyl)(pyridin-2-yl)methyl)-6-oxo-1,6-dihydropyridine-3-carboxamide]
[1]
  IC50: 13.7 nM
[2]
  inhibition in vivo at 1 mg/kg: 96%

## C[C@@H](O)Cn1cc(C(=O)N[C@@H](c2ccc(OC(F)(F)F)c(F)c2)c2ncccc2F)ccc1=O [Example 299, N-((S)-(3-fluoro-4-(trifluoromethoxy)phenyl)(3-fluoropyridin-2-yl)methyl)-1-((R)-2-hydroxypropyl)-6-oxo-1,6-dihydropyridine-3-carboxamide]
[1]
  IC50: 17.5 nM
[2]
  inhibition in vivo at 1 mg/kg: 56%

## Cn1cc(C(=O)N[C@@H](c2ccc(OC(F)(F)F)c(F)c2)c2ncccc2F)ccc1=O [Example 103, (S)-N-((3-fluoro-4-(trifluoromethoxy)phenyl)(3-fluoropyridin-2-yl)methyl)-1-methyl-6-oxo-1,6-dihydropyridine-3-carboxamide]
[1]
  IC50: 7.8 nM
[2]
  inhibition in vivo at 1 mg/kg: 97%

## O=C(N[C@@H](c1ccc(OC(F)(F)F)c(F)c1)c1ncccc1F)c1ccc2[nH]c(=O)oc2n1 [Example 426, (S)—N-((3-fluoro-4-(trifluoromethoxy)phenyl)(3-fluoropyridin-2-yl)methyl)-2-oxo-1,2-dihydrooxazolo[5,4-b]pyridine-5-carboxamide]
[1]
  IC50: 9.7 nM
[2]
  inhibition in vivo at 1 mg/kg: 53%

## O=C(N[C@@H](c1ccc(OC(F)(F)F)cc1F)c1ncccc1F)c1ccc(=O)[nH]c1 [Example 386, (S)-N-((2-fluoro-4-(trifluoromethoxy)phenyl)(3-fluoropyridin-2-yl)methyl)-6-oxo-1,6-dihydropyridine-3-carboxamide 2,2,2-trifluoroacetate]
[1]
  IC50: 10.5 nM
[2]
  inhibition in vivo at 1 mg/kg: 97%

## O=C1Cc2cc(C(=O)N[C@@H](c3ccc(OC(F)(F)F)cc3)c3ncccc3F)ccc2N1 [Example 91, (S)-N-((3-fluoropyridin-2-yl)(4-(trifluoromethoxy)phenyl)methyl)-2-oxoindoline-5-carboxamide]
[1]
  IC50: 13.7 nM
[2]
  inhibition in vivo at 1 mg/kg: 100%

## O=C(N[C@@H](c1ccc(C(F)(F)F)cc1)c1ncccc1F)c1ccc(=O)n(CCO)c1 [Example 370, (S)-N-((3-fluoropyridin-2-yl)(4-(trifluoromethyl)phenyl)methyl)-1-(2-hydroxyethyl)-6-oxo-1,6-dihydropyridine-3-carboxamide]
[1]
  IC50: 33.7 nM
[2]
  inhibition in vivo at 1 mg/kg: 50%

## O=C(N[C@@H](c1ccc(OC(F)(F)F)cc1)c1ccccn1)c1ccc2oc(=O)[nH]c2c1 [Example 362, (S)-2-oxo-N-(pyridin-2-yl(4-(trifluoromethoxy)phenyl)methyl)-2,3-dihydrobenzo[d]oxazole-5-carboxamide]
[1]
  IC50: 4.2 nM
[2]
  inhibition in vivo at 1 mg/kg: 98%

## O=C(N[C@@H](c1ccc(OC(F)(F)F)cc1)c1ccccn1)c1ccc(=O)[nH]c1 [Example 377, (S)-6-oxo-N-(pyridin-2-yl(4-(trifluoromethoxy)phenyl)methyl)-1,6-dihydropyridine-3-carboxamide]
[1]
  IC50: 20.7 nM
[2]
  inhibition in vivo at 1 mg/kg: 94%

## Cc1cccnc1[C@@H](NC(=O)c1ccc(=O)n(C)c1)c1ccc(OC(F)(F)F)c(F)c1 [Example 348, (S)-N-((3-fluoro-4-(trifluoromethoxy)phenyl)(3-methylpyridin-2-yl)methyl)-1-methyl-6-oxo-1,6-dihydropyridine-3-carboxamide]
[1]
  IC50: 15.4 nM
[2]
  inhibition in vivo at 1 mg/kg: 51%

## O=C(N[C@@H](c1ccc(OC(F)(F)F)cc1)c1ncccc1F)c1ccc2oc(=O)[nH]c2c1 [Example 79, (S)-N-((3-fluoropyridin-2-yl)(4-(trifluoromethoxy)phenyl)methyl)-2-oxo-2,3-dihydrobenzo[d]oxazole-5-carboxamide]
[1]
  IC50: 5.1 nM
[2]
  inhibition in vivo at 1 mg/kg: 99%

## Cn1cc(C(=O)N[C@@H](c2ccc(C(F)(F)F)cc2)c2ncccc2F)ccc1=O [Example 68, (S)-N-((3-fluoropyridin-2-yl)(4-(trifluoromethyl)phenyl)methyl)-1-methyl-6-oxo-1,6-dihydropyridine-3-carboxamide]
[1]
  IC50: 14.2 nM
[2]
  inhibition in vivo at 1 mg/kg: 100%

## Cc1cc(C(=O)N[C@@H](c2ccc(C(F)(F)F)cc2)c2ncccc2F)c[nH]c1=O [Example 373, (S)-N-((3-fluoropyridin-2-yl)(4-(trifluoromethyl)phenyl)methyl)-5-methyl-6-oxo-1,6-dihydropyridine-3-carboxamide]
[1]
  IC50: 20.6 nM
[2]
  inhibition in vivo at 1 mg/kg: 64%

## O=C(N[C@@H](c1ccc(OC(F)(F)F)cc1)c1ncccc1F)c1ccc(=O)[nH]c1 [Example 1, (S)-N-((3-fluoropyridin-2-yl)(4-(trifluoromethoxy)phenyl)methyl)-6-oxo-1,6-dihydropyridine-3-carboxamide]
[1]
  IC50: 9.8 nM
[2]
  inhibition in vivo at 1 mg/kg: 100%

## O=C(N[C@@H](c1ccc(C(F)(F)F)cc1)c1ncccc1F)c1ccc2oc(=O)[nH]c2c1 [Example 76, (S)-N-((3-fluoropyridin-2-yl)(4-(tnfluoromethyl)phenyl)methyl)-2-oxo-2,3-dihydrobenzo[d]oxazole-5-carboxamide]
[1]
  IC50: 4.5 nM
[2]
  inhibition in vivo at 1 mg/kg: 100%

## O=C(N[C@@H](c1ccc(OC(F)(F)F)c(F)c1)c1ccccc1F)c1ccc(=O)[nH]c1 [Example 295, (S)-N-((3-fluoro-4-(trifluoromethoxy)phenyl)(2-fluorophenyl)methyl)-6-oxo-1,6-dihydropyridine-3-carboxamide]
[1]
  IC50: 18 nM
[2]
  inhibition in vivo at 1 mg/kg: 77%
